15 compounds from patent US20260108527A1, “POLO LIKE KINASE 4 INHIBITORS” (ORIC Pharmaceuticals, Inc., priority 2022, published 2026) can be followed below.

In test [1] the target is T1, human recombinant Aurora B (Homo sapiens, UniProt Q96GD4).
T1 construct: purchased ThermoFisher PR9210B
Description: Aurora B Kinase Biochemical Assay (ADP-Glo). Conditions: selectivity ratio; Aurora B 10 nM, 114 μM ATP. Here is the method:
Activity of human recombinant Aurora B (ThermoFisher, cat #PR9210B) was measured by quantification of adenosine diphosphate (ADP) using the ADP-Glo Kinase Assay Kit (Promega, cat #V9102). Test compounds were solubilized in dimethyl sulfoxide (DMSO) and dispensed into 384-well white polystyrene nonbinding plates (Greiner, cat #781094) using the Echo acoustic dispenser (Labcyte Inc.) in a 11-point 3-fold titration in duplicates. 5 μL of 20 nM Aurora B in assay buffer (50 mM HEPES, pH 7.5, 0.01% Brij-35, 0.01% BSA, 10 mM MgCl2, 1 mM EGTA, 1 mM DTT) was added to the plates. Test compounds and Aurora B were incubated for 15 minutes at room temperature (RT). Then 5 μL of a 228 μM adenosine triphosphate (ATP) (Promega, cat #V915B) and 9.3 μM Myelin Basic Protein (MBP) (SignalChem, cat #M42-51N) substrate solution in assay buffer was added and the reaction mixture was incubated for 2 hours at RT. The final concentration of Aurora b, ATP and MBP in the reactions were 10 nM, 114 μM and 4.7 μM, respectively. Reactions were stopped and the remaining ATP depleted by adding 10 μL of ADP-Glo reagent (Promega, cat #V912B) and incubating for 40 minutes at RT. The simultaneous conversion of the remaining ADP to ATP and measurement of the newly synthesized ATP was achieved by addition of 20 μL Kinase Detection reagent (Promega, cat #V9141B), incubation for 30 min at RT, and luminescence detection using the EnVision plate reader (PerkinElmer). Reactions lacking Aurora B were used as […]. Reactions containing DMSO alone were used as […]. The IC50 values reported in Table 2 were determined using four parameter non-linear regression curve fit.
Background: ADP-Glo turns the ADP formed in a reaction into a luminescent signal.

Test [2] concerns the target T2, human recombinant PLK4 (Homo sapiens, UniProt O00444).
T2 construct: purchased ThermoFisher PV6396
T2 sequence (O00444 1-970): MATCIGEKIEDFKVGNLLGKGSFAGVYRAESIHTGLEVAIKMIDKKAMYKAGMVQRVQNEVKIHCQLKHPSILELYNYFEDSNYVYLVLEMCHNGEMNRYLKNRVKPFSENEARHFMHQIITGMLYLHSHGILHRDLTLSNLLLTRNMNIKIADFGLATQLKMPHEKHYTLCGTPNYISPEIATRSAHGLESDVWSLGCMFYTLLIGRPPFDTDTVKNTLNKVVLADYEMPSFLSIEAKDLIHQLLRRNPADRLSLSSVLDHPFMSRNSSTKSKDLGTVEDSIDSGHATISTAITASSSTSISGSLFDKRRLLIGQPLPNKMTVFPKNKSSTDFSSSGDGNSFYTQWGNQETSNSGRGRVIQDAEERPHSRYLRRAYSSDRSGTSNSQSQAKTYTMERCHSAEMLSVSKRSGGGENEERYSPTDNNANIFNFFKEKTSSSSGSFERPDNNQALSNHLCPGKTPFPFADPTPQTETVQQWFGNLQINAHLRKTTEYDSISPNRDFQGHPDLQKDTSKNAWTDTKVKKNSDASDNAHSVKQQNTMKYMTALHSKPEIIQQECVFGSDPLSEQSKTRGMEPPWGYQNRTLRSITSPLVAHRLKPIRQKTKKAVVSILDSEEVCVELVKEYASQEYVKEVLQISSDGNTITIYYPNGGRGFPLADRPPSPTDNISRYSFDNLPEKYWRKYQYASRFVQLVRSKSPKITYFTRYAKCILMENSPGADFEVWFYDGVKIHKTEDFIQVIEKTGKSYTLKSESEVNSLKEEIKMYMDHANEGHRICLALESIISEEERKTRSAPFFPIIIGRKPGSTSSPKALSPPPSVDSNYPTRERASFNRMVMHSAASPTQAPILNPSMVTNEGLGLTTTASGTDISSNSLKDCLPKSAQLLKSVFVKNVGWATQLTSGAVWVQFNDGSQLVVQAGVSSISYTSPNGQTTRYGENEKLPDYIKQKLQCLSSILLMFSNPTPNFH
Put plainly: PLK4 Biochemical Assay (ADP-Glo). Conditions: 0.5 nM PLK4, 8.0 μM ATP, 4.7 μM MBP, 6 hours at RT. Here is the method:
Activity of human recombinant PLK4 (ThermoFisher, cat #PV6396) was measured by quantification of adenosine diphosphate (ADP) using the ADP-Glo Kinase Assay Kit (Promega, cat #V9102). […] 5 μL of 1.0 nM PLK4 protein in assay buffer (50 mM HEPES, pH 7.5, 0.01% Brij-35, 0.01% BSA, 10 mM MgCl2, 1 mM EGTA, 1 mM DTT) was added to the plates. Test compounds and PLK4 were incubated for 15 minutes at room temperature (RT). […] Reactions were stopped and the remaining ATP depleted by adding 10 μL of ADP-Glo reagent (Promega, cat #V912B) and incubating for 40 minutes at RT. The simultaneous conversion of the remaining ADP to ATP and measurement of the newly synthesized ATP was achieved by addition of 20 μL Kinase Detection reagent (Promega, cat #V914B), incubation for 30 min at RT, and luminescence detection using the EnVision plate reader (PerkinElmer). […] The IC50 values reported in Table 2 were determined using four parameter non-linear regression curve fit.

T1 sequence (Q96GD4 whole entry): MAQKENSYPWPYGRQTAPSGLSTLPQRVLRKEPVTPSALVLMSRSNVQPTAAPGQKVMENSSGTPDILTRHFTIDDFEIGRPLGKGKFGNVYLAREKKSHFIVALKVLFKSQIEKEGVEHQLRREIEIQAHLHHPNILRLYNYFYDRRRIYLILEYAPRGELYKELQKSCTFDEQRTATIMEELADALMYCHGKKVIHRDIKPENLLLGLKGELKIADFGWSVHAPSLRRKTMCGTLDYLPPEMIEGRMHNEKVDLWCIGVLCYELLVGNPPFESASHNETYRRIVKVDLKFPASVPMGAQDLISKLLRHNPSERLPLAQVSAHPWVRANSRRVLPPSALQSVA

Regarding `COc1ccc2c(c1)[C@]1(C[C@H]1c1ccc3c(Nc4cc5c(cc4OC)S(=O)(=O)CC5)n[nH]c3c1)C(=O)N2` [Example 1, 6-methoxy-5-({6-[(1R,2S)-5′-methoxy-2′-oxo-1′,2′-dihydrospiro[cyclopropane-1,3′-indol]-2-yl]-1H-indazol-3-yl}amino)-2,3-dihydro-1H-1-benzothiophene-1,1-dione], the “[Aurora B IC50 (nM)]/[PLK4 IC50 (nM)]” value in test [1] came to 791.6196. For the same compound, the 50% inhibitory concentration (IC50) (usually the concentration needed to halve the response being measured) in test [2] worked out at 0.797 nM.
The matching figures for `COc1ccc2c(c1)[C@]1(C[C@H]1c1ccc3c(Nc4ccc(S(C)(=O)=O)cc4OC)n[nH]c3c1)C(=O)N2` [Example 2, (1R,2S)-2-{3-[4-(methanesulfonyl)-2-methoxyanilino]-1H-indazol-6-yl}-5′-methoxyspiro[cyclopropane-1,3′-indol]-2′(1′H)-one]: 229.2462 and 0.576 nM.
The matching figures for `COc1ccc2c(c1)[C@]1(C[C@H]1c1ccc3c(Nc4ccc(C(C)=O)cc4OC)n[nH]c3c1)C(=O)N2` [Example 3, (1R,2S)-2-[3-(4-acetyl-2-methoxyanilino)-1H-indazol-6-yl]-5′-methoxyspiro[cyclopropane-1,3′-indol]-2′(1′H)-one]: 256.2681 and 2.76 nM.
The matching figures for `COc1ccc2c(c1)[C@]1(C[C@H]1c1ccc3c(Nc4nc(-c5ncco5)ccc4OC)n[nH]c3c1)C(=O)N2` [Example 4, (1R,2S)-5′-methoxy-2-(3-{[3-methoxy-6-(1,3-oxazol-2-yl)pyridin-2-yl]amino}-1H-indazol-6-yl)spiro[cyclopropane-1,3′-indol]-2′(1′H)-one]: 549.2668 and 0.682 nM.
As for `CCS(=O)(=O)c1ccc(Nc2n[nH]c3cc([C@@H]4C[C@@]45C(=O)Nc4ccc(OC)cc45)ccc23)c(OC)c1` [Example 5, (1R,2S)-2-{3-[4-(ethanesulfonyl)-2-methoxyanilino]-1H-indazol-6-yl}-5′-methoxyspiro[cyclopropane-1,3′-indol]-2′(1′H)-one], in test [1], the “[Aurora B IC50 (nM)]/[PLK4 IC50 (nM)]” value stood at 238.2702. Moreover, in test [2], the IC50 came out at 0.708 nM.
The corresponding values for `COc1ccc2c(c1)[C@]1(C[C@H]1c1ccc3c(Nc4cc5c(cc4OC)S(=O)(=O)C=C5)n[nH]c3c1)C(=O)N2` [Example 6, 6-methoxy-5-({6-[(1R,2S)-5′-methoxy-2′-oxo-1′,2′-dihydrospiro[cyclopropane-1,3′-indol]-2-yl]-1H-indazol-3-yl}amino)-1H-1-benzothiophene-1,1-dione] are 427.6412 and 0.952 nM.
The corresponding values for `CCOc1cc(-c2cnccn2)ccc1Nc1n[nH]c2cc([C@@H]3C[C@@]34C(=O)Nc3ccc(OC)cc34)ccc12` [Example 7, (1R,2S)-2-{3-[2-ethoxy-4-(pyrazin-2-yl)anilino]-1H-indazol-6-yl}-5′-methoxyspiro[cyclopropane-1,3′-indol]-2′(1′H)-one] are 702.6392 and 1.71 nM.
The corresponding values for `CCOc1cc2ccccc2nc1Nc1n[nH]c2cc([C@@H]3C[C@@]34C(=O)Nc3ccc(OC)cc34)ccc12` [Example 8, (1R,2S)-2-{3-[(3-ethoxyquinolin-2-yl)amino]-1H-indazol-6-yl}-5′-methoxyspiro[cyclopropane-1,3′-indol]-2′(1′H)-one] are 1829.1347 and 1.83 nM.
Turning to `CCOc1cc(-n2cncn2)ccc1Nc1n[nH]c2cc([C@@H]3C[C@@]34C(=O)Nc3ccc(OC)cc34)ccc12` [Example 10, (1R,2S)-2-{3-[2-ethoxy-4-(1H-1,2,4-triazol-1-yl)anilino]-1H-indazol-6-yl}-5′-methoxyspiro[cyclopropane-1,3′-indol]-2′(1′H)-one], the “[Aurora B IC50 (nM)]/[PLK4 IC50 (nM)]” value in test [1] turned out to be 396.7684. In test [2], the half-maximal inhibitory concentration (IC50) came to 0.557 nM.
`COc1ccc2c(c1)[C@]1(C[C@H]1c1ccc3c(Nc4cc(-c5cnn(C)c5)ccc4OC)n[nH]c3c1)C(=O)N2` [Example 11, (1R,2S)-5′-methoxy-2-{3-[2-methoxy-5-(1-methyl-1H-pyrazol-4-yl)anilino]-1H-indazol-6-yl}spiro[cyclopropane-1,3′-indol]-2′(1′H)-one]: in test [1], the “[Aurora B IC50 (nM)]/[PLK4 IC50 (nM)]” value is 1051.5384. Further, the half-maximal inhibitory concentration (IC50) in test [2] was determined as 0.52 nM.
For the compound `CCOc1cc2c(ccc[n+]2[O-])cc1Nc1n[nH]c2cc([C@@H]3C[C@@]34C(=O)Nc3ccc(OC)cc34)ccc12` [Example 12, 7-ethoxy-6-((6-((1R,2S)-5′-methoxy-2′-oxospiro[cyclopropane-1,3′-indolin]-2-yl)-1H-indazol-3-yl)amino)quinoline 1-oxide], the “[Aurora B IC50 (nM)]/[PLK4 IC50 (nM)]” value in test [1] is reported as 810. The concentration for half-maximal inhibition (IC50) in test [2] came out at 3.1 nM.
The matching figures for `COc1ccc2c(c1)[C@]1(C[C@H]1c1ccc3c(Nc4cc(-c5ncco5)ccc4OC)n[nH]c3c1)C(=O)N2` [Example 13, (1R,2S)-5′-methoxy-2-{3-[2-methoxy-5-(1,3-oxazol-2-yl)anilino]-1H-indazol-6-yl}spiro[cyclopropane-1,3′-indol]-2′(1′H)-one]: 1120.7692 and 0.65 nM.
For the compound `COc1ccc2c(c1)[C@]1(C[C@H]1c1ccc3c(Nc4cc(-c5nccs5)ccc4OC)n[nH]c3c1)C(=O)N2` [Example 14, (1R,2S)-5′-methoxy-2-{3-[2-methoxy-5-(1,3-thiazol-2-yl)anilino]-1H-indazol-6-yl}spiro[cyclopropane-1,3′-indol]-2′(1′H)-one], the “[Aurora B IC50 (nM)]/[PLK4 IC50 (nM)]” value in test [1] was 897.1830. Moreover, in test [2], the IC50 was 0.639 nM.
The matching figures for `COc1ccc2c(c1)[C@]1(C[C@H]1c1ccc3c(Nc4cc(-c5cscn5)ccc4OC)n[nH]c3c1)C(=O)N2` [Example 15, (1R,2S)-5′-methoxy-2-{3-[2-methoxy-5-(1,3-thiazol-4-yl)anilino]-1H-indazol-6-yl}spiro[cyclopropane-1,3′-indol]-2′(1′H)-one]: 511.8461 and 0.65 nM.
The matching figures for `COc1ccc2c(c1)[C@]1(C[C@H]1c1ccc3c(Nc4cc(-c5cocn5)ccc4OC)n[nH]c3c1)C(=O)N2` [Example 16, (1R,2S)-5′-methoxy-2-{3-[2-methoxy-5-(1,3-oxazol-4-yl)anilino]-1H-indazol-6-yl}spiro[cyclopropane-1,3′-indol]-2′(1′H)-one]: 730.6487 and 0.894 nM.
